Source: paper PMC7143940, “Enhancing the Immune Response of a Nicotine Vaccine with Synthetic Small “Non-Natural” Peptides” (Molecules, 2020)
“Also recorded” adds a separate entry of the source. Where a SMILES comes first, the peptide text is derived from it.

Assay: Peptide stability in human plasma (RP-HPLC)
Format: in vitro ADME
Conditions: human plasma (EDTA blood, healthy volunteers), 37 °C, various time points, RP-HPLC with 0.1% trifluoroacetic acid, absorbance at 210 nm, average ± SEM of three separate experiments; result in words
Protocol: Figure 1 Peptide stability in plasma. Pentapeptide 1 was incubated in human plasma at 37 °C. Levels of the peptide remaining after various time points were analyzed by RP-HPLC in the presence of 0.1% trifluoroacetic acid and detected by absorbance at 210 nm. Peptide amounts were calculated relative to quantities determined at time point zero, and data shown are the average ± SEM of three separate experiments.
Blood was collected from healthy volunteers in EDTA blood collection tubes (BD Vacutainer, Mississauga, ON, Canada). Plasma was collected after centrifugation at 900× g and 20 °C for 10 min with decreased deceleration, aliquoted, and stored at −80 °C. All subjects gave their informed consent for inclusion before they participated in the study. The study was conducted in accordance with the Declaration of Helsinki, with all protocols approved by the Research Ethics Board at Health Sciences North Research Institute (Protocol # 18-061).
The stability of pentapeptide 1 in human plasma was analyzed using previously published methods.

SMILES: NCCCC[C@H](N)C(=O)N[C@@H](Cc1c[nH]c2ccccc12)C(=O)N[C@@H](CS)C(=O)N[C@@H](CCC(=O)O)C(=O)N[C@@H](CS)C(=O)O [Peptide 1, KWCEC] (H-KWCEC-OH)
- Plasma stability: peptide remaining relative to time point zero: No statistical difference was found between the two time points; also recorded: not recognized and cleaved by proteolytic enzymes
